Data published in patent US7101915B1, “P-terphenyl compounds” (Shionogi & Co., Ltd., priority 1996, dated 2006).
Values after ≈ are worked out from the molar mass of the structure shown. Marks after values point to notes of the source that are not given here.

How the values were obtained:
[1] = test system: C3H/HeN mouse splenocytes stimulated with lipopolysaccharide (LPS); experiment: Suppressive effect on mitogenic activity of mouse splenocytes in vitro, LPS as mitogen (MTT); type: cell-based; details: LPS 10 μg/ml as mitogen, 3 days
Description: (§1) Experiment 1 Suppressive Effect on a Mitogenic Activity of Mouse Splenocytes In Vitro
(§2) In 96-well microtiter plate 5×10^5 C3H/HeN mouse splenocytes suspended in 0.1 ml of 10% fetal bovine serum-fortified RPMI 1640 medium containing 2 mM of sodium bicarbonate, 50 units/ml of penicillin, 50 μg/ml of streptomycin and 5×10^−5 M of 2-mercaptoethanol were added. Then, 5 μg/ml of Concanavalin A (Con A) or 10 μg/ml of lipopolysaccharide (LPS) as a mitogen and the compound of a pre-determined concentration of the present invention were added to each well so that a final volume of each well reached 0.2 ml. Each compound of the present invention was dissolved in dimethylsulfoxide (DMSO) and diluted with the above RPMI 1640 medium to adjust the final concentration of 100 ng/ml or less. The splenocytes in the 96-well microtiter plate were cultivated at 37° C. for 3 days in an incubator keeping the humidity 100%, carbon dioxide 5% and air 95%. Then, 25 μl of 6 mg/ml MTT [3-(4,5-dimethylthiazol-2-yl)-2,5-diphenyltetrazolium bromide] (Sigma) was added to the each well and cultivated at 37° C. for 4 hours under the same conditions. After the cultivation, 50 μl of 0.02 N hydrochloric acid in 20% sodium dodecyl sulfate (SDS) was added to formazan generated and left at 37° C. for 24 hours for dissolving formazan. An absorption intensity (OD) of formazan generated in proportion to the number of living cells was measured with an immunoreader (InterMed) equipped with a 570 nm filter (The Journal of Immunological Method, 65, 55-63, 1983). The 50% inhibitory concentration of a cell proliferation (IC 50) was calculated from a correlation between the concentration of the compound of the present invention and the absorption intensity.

[2] = test system: mouse thymoma strain EL4 cells; experiment: Anti-proliferative activity on EL4 cells (MTT); type: cell-based; details: 3 days
Description: Experiment 2 Anti-Proliferative Activity on EL4 Cells
In 96-well microtiter plate 4×10^4/0.1 ml of mouse thymoma strain EL4 cells were added and 0.1 ml of the compound of the present invention was added to the mixture so that the concentration was in the range of 0-5,000 ng/ml. After the cultivation for 3 days, the IC50 was calculated by the MTT method as described in Experiment 1.

[3] = test system: C3H/HeN mouse splenocytes stimulated with Concanavalin A (Con A); experiment: Suppressive effect on mitogenic activity of mouse splenocytes in vitro, Con A as mitogen (MTT); type: cell-based; details: Con A 5 μg/ml as mitogen, 3 days
Description: as §1, §2

[4] = test system: anti-OVA IgE antibody titer (PCA titer); experiment: Suppressive effect on the IgE production against ovalbumin (OVA), PCA titer; type: in vivo, BALB/c mice; details: untreated group 9-12
Description: Experiment 4 Suppressive Effect on the IgE Production Against Ovalbumin (OVA)
BALB/c mice (female, 8-10 weeks old) and Wistar rats (female, 8-10 weeks old) which were bought from Japan SLC, Inc. (Shizuoka) were used.
BALB/c mice were immunized by an intraperitoneal administration of 0.2 ml suspension of 2 μg of ovalbumin (OVA) and 2 mg of aluminium hydroxide gel in physiological saline. After 10 days, blood was drawn from hearts, sera were separated and stocked at −40° C. till the measurement of an IgE antibody titer.
After the compound of the present invention was dissolved or suspended in N, N-dimethylacetoamide, the mixture was diluted 20 times with miglyol 812 neutral oil. The obtained solution was orally administered to mice at 0.1 ml per mouse. The administration was continued for 10 days from the immunizing day to the day before drawing blood. IPD-1151-T (a compound described in Jpn. Pharmacol. (1993) 61, 31–39) and a compound No. 36 (a compound 36 described in J. Med. Chem. (1997) 40: 395–407) were examined as controls by the same method.
4) Measurement of Anti-OVA IgE Antibody Titer (PCA Titer)
The samples 2-fold diluted with physiological saline were prepared from the obtained mouse serum and each 50 μl of the solution was intradermally injected to backs of Wistar rats which previously hair cut. After 24 hours, a passive cutaneous anaphylaxis reaction (PCA) was induced by an intravenous injection of 0.5 ml of physiological saline containing 1 mg of OVA and 5 mg of Evans' blue dye. After 30 minutes, the rats were sacrified and the highest dilution rate of the serum giving bluing with a diameter of more than 5 mm was recorded as the PCA titer. For example, when a serum is positive for the PCA reaction till […], the anti-OVA IgE antibody titer of the mouse is defined as 7.

[5] = test system: IL-2 production of mouse T cell strain EL-4 (TPA); experiment: Suppressive effect on the cytokine production of mouse T cell strain EL-4: IL-2; type: cell-based; details: EL-4, TPA 10 ng/ml, 24 hours, ELISA
Description: (§3) Experiment 8 Suppressive Effect on the Cytokine Production of a Mouse T Cell Strain EL-4 In 48-well plate were added 2×10^5 mouse T cell strain EL-4 which were suspended in 0.2 ml of 1% fetal bovine serum-added RPMI 1640 medium (2 mM of sodium bicarbonate, 50 units/ml of penicillin, 50 μg/ml of streptomycin and 5×10^−5 M of 2-mercaptoethanol were added) and the compound of the present invention of a predetermined concentration. TPA was added as a cell stimulater at a final concentration of 10 ng/ml to adjust a final volume of each well to 0.4 ml. Each compound of the present invention was dissolved in DMSO and diluted with the above RPMI 1640 medium, and then for added at a final concentration of 100 ng/ml or less. The cells in the 48-well plate were cultivated in an incubator keeping the humidity 100%, carbon dioxide 5% and air 95% at 37° C. for 24 hours to collect a supernatant of each well. The amount of IL-2, IL-4 and IL-5 released in the medium of each well were measured with the ELISA kit (Amersham K. K.) to be taken as an index of the cytokine production of the cells. TPA free group (-TPA) was used as a control.

[6] = test system: IL-5 production of mouse T cell strain EL-4 (TPA); experiment: Suppressive effect on the cytokine production of mouse T cell strain EL-4: IL-5; type: cell-based; details: EL-4, TPA 10 ng/ml, 24 hours, ELISA
Description: as §3

[7] = test system: IL-4 production of mouse T cell strain EL-4 (TPA); experiment: Suppressive effect on the cytokine production of mouse T cell strain EL-4: IL-4; type: cell-based; details: EL-4, TPA 10 ng/ml, 24 hours, ELISA
Description: as §3

SMILES | LPS IC50 [1] | EL-4 IC50 [2] | ConA IC50 [3] | further results
COc1cc(-c2ccc(O)cc2)c(OC)c(O)c1-c1ccc(OCC=C(Br)Br)c(O)c1 [Compound I-931] |  |  |  | IC50 ([1]; Mus musculus, Splenocyte, 72 h): 0.00576 µg/mL (≈ 0.0104 µM); IC50 ([2]; Mus musculus, 72 h, read-out: EL-4 IC50): 0.00437 µg/mL (≈ 0.00791 µM); melting point: 166 to 168 °C; IC50 ([3]; Mus musculus, Splenocyte, 72 h, read-out: ConA IC50): 0.00293 µg/mL (≈ 0.00531 µM)
CC(C)=CCNc1ccc(-c2cc(C)c(-c3ccc(N(C)C)cc3)cc2C)cc1F [Compound I-925] |  |  |  | melting point: 100 to 102 °C; PCA Titer ([4]; 40 mg/kg orally for 10 days): 1**
COc1cc(-c2ccc(NCC=C(C)C)c(F)c2)c(OC)cc1-c1ccc(N(C)C)cc1 [Compound I-484] | 0.0322 µg/mL | 0.0914 µg/mL | 0.0147 µg/mL | PCA Titer ([4]; 40 mg/kg orally for 10 days): <0
COc1cc(-c2ccc(O)cc2)c(OC)c(O)c1-c1ccc(OCc2ccco2)c(O)c1 [Compound I-211] | <0.02 µg/mL | <0.02 µg/mL | <0.02 µg/mL | 
COc1cc(-c2ccc3c(c2)OCO3)c(OC)c(O)c1-c1ccc(OCC=C(C)C)c(O)c1 [Compound I-62] | 0.025 µg/mL | 0.0234 µg/mL | 0.0292 µg/mL | 
COc1cc(-c2ccc(N(C)C)cc2)c(OC)c(O)c1-c1ccc(OCC=C(C)C)c(O)c1 [Compound I-255] | <0.02 µg/mL | <0.02 µg/mL | <0.02 µg/mL | 
COc1cc(-c2ccc(OCC=C(C)C)c(O)c2)c(OC)cc1-c1ccc(OCC=C(C)C)c(O)c1 [Compound I-66] | 0.00035 µg/mL | 0.00048 µg/mL | 0.00022 µg/mL | 
C/C=C/COc1ccc(-c2c(OC)cc(-c3ccc(O)cc3)c(OC)c2O)cc1O [Compound I-49] | 0.0162 µg/mL | 0.0317 µg/mL | 0.00889 µg/mL | 
COc1cc(-c2ccc(N(C)C)cc2)c(OC)c(OS(C)(=O)=O)c1-c1ccc(OCc2ccccc2)c(O)c1 [Compound I-360] | <0.02 µg/mL | 0.0998 µg/mL | <0.02 µg/mL | 
COc1cc(-c2ccc(O)cc2)c(OC)c(O)c1-c1ccc(OC/C=C(/C)CO)c(O)c1 [Compound I-299] | 0.00785 µg/mL | 0.0136 µg/mL | 0.00553 µg/mL | 
COCOc1c(OC)c(-c2ccc(OC)cc2)cc(OC)c1-c1ccc(OCc2ccccc2)c(O)c1 [Compound I-107] | 0.0007 µg/mL | 0.012 µg/mL | 0.0006 µg/mL | 
C=C/C=C\COc1ccc(-c2c(OC)cc(-c3ccc(O)cc3)c(OC)c2O)cc1O [Compound I-175] | 0.0294 µg/mL | <0.02 µg/mL | <0.02 µg/mL | 
C=CCOc1ccc(-c2c(OC)cc(-c3ccc(O)cc3)c(OC)c2O)cc1O [Compound I-46] | 0.0239 µg/mL | 0.0675 µg/mL | 0.0106 µg/mL | 
COc1ccccc1-c1cc(OC)c(-c2ccc(OCC=C(C)C)c(O)c2)c(O)c1OC [Compound I-276] | 0.0031 µg/mL | 0.2 µg/mL | 0.0018 µg/mL | 
COCOc1c(OC)c(-c2ccc(OS(C)(=O)=O)cc2)cc(OC)c1-c1ccc(OCc2ccccc2)c(O)c1 [Compound I-163] | <0.02 µg/mL | <0.02 µg/mL | <0.02 µg/mL | 
C#CC(O)COc1ccc(-c2c(OC)cc(-c3ccc(O)cc3)c(OC)c2O)cc1O (stereo not drawn) [Compound I-301] | 0.011 µg/mL | 0.0158 µg/mL | 0.00706 µg/mL | IC50 IL-2 [5]: 0.5 µg/mL (≈ 1.18 µM); IC50 IL-5 [6]: 0.12 µg/mL (≈ 0.284 µM); IC50 IL-4 [7]: <0.01 µg/mL
CCOCC(O)COc1ccc(NC(=O)CC[S+](C)C)cc1.Cc1ccc(S(=O)(=O)[O-])cc1 (stereo not drawn) [IPD-1151-T, Suplatast Tosilate, reference compound] |  |  |  | PCA Titer ([4]; 50 mg/kg orally for 10 days): 9.8
O=C(Cc1ccc(Oc2ccc3cc(OCc4ccccc4)ccc3c2)cc1)Nc1ccccc1C(=O)O [No.36] |  |  |  | PCA Titer ([4]; 10 mg/kg orally for 10 days): 10.4
CC#CCOc1ccc(-c2c(OC)cc(-c3ccc(O)cc3)c(OC)c2O)cc1O [Compound I-40] | 0.0165 µg/mL | 0.0374 µg/mL | 0.0061 µg/mL | 
